{
  "source": "paper PMC10443802",
  "about": "“Targeting a xenobiotic transporter to ameliorate vincristine-induced sensory neuropathy” (JCI Insight, 2023)",
  "key": {"[1]": {"biological_target": "T1, mOATP1B2 (Mus musculus, UniProt Q9JJL3)", "T1 sequence (Q9JJL3 1-689)": "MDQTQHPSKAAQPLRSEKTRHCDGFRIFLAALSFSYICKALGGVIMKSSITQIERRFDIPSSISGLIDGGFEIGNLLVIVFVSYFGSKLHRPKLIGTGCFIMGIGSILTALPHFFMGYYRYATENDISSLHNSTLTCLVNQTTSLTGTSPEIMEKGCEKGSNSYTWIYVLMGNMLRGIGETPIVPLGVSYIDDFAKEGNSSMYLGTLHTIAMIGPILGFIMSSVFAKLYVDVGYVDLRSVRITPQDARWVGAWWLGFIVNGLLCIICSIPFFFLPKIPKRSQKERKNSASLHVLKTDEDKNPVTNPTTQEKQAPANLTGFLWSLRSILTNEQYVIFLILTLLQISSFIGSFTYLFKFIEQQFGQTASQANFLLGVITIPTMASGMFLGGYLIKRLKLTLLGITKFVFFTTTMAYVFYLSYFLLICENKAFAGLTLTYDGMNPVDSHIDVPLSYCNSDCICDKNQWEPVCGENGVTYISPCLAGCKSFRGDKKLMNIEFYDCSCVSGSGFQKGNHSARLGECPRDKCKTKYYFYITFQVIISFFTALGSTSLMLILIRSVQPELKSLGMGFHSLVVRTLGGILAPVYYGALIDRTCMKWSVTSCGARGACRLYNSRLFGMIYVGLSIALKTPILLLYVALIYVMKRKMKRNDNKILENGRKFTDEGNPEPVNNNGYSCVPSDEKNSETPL", "assay": "EβG uptake in HEK293 cells overexpressing mOATP1B2", "assay_type": "in vitro ADME", "description": "DRG, sciatic and caudal nerves were prepared, stained with toluidine blue, and examined with a Zeiss Axioskop WideField Light Microscope, as described previously (10). Representative images were captured with a QIClick Digital CCD color camera. For DRG morphometrics, the somatic size was measured for each cell containing nucleolus, and at least 200 DRG neurons per animal were manually measured and analyzed with a computer-assisted image analyzer (ImageJ software, Bethesda, MD). For sciatic nerve, all myelinated fibers evaluable in the analyzed space were counted and the internal (axonal) and external (total) diameters of myelinated fibers were measured on at least 500 myelinated fibers/nerve. The histograms of g-ratio (axonal diameter/whole fiber diameter as a measure of myelination degree in each fiber) distribution were generated. An observer blinded to the group compositions performed all the morphometric determinations.\nCellular accumulation. Human embryonic kidney (HEK293) cells (ATCC) overexpressing OATP1B1, […]\nAfter incubation, transport was halted by aspirating radiolabeled drug, and rinsing the cells three times with ice-cold 1X PBS. Total radioactivity originating from the substrates was measured by lysing the cells with 1N NaOH, neutralized with 2N HCL, and measuring total radioactivity by liquid scintillation counting using an LS 6500 Counter (Beckman). […]"}, "[2]": {"biological_target": "T2, hOATP1B1 (Homo sapiens, UniProt Q9Y6L6)", "T2 sequence (Q9Y6L6 1-691)": "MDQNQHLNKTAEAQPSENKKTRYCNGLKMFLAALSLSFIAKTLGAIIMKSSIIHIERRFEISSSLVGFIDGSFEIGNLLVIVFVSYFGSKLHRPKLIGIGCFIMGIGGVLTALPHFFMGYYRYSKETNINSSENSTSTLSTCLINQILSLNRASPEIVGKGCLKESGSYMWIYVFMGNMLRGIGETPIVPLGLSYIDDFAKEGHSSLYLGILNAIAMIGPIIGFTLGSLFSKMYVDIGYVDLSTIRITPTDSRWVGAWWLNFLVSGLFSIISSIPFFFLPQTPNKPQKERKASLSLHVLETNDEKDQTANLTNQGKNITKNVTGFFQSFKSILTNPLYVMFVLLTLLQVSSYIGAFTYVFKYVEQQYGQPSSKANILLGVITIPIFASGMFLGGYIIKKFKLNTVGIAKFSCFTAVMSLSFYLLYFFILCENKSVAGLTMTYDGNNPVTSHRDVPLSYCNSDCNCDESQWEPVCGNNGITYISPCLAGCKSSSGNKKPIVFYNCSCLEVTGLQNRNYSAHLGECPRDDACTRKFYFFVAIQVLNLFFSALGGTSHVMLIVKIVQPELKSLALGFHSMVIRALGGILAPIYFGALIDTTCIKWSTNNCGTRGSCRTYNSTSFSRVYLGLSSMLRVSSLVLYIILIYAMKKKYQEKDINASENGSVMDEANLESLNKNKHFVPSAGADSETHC", "assay": "EβG uptake in HEK293 cells overexpressing hOATP1B1", "assay_type": "in vitro ADME"}, "[3]": {"biological_target": "T3, hOATP1B3 (Homo sapiens, UniProt Q9NPD5)", "T3 sequence (Q9NPD5 1-702)": "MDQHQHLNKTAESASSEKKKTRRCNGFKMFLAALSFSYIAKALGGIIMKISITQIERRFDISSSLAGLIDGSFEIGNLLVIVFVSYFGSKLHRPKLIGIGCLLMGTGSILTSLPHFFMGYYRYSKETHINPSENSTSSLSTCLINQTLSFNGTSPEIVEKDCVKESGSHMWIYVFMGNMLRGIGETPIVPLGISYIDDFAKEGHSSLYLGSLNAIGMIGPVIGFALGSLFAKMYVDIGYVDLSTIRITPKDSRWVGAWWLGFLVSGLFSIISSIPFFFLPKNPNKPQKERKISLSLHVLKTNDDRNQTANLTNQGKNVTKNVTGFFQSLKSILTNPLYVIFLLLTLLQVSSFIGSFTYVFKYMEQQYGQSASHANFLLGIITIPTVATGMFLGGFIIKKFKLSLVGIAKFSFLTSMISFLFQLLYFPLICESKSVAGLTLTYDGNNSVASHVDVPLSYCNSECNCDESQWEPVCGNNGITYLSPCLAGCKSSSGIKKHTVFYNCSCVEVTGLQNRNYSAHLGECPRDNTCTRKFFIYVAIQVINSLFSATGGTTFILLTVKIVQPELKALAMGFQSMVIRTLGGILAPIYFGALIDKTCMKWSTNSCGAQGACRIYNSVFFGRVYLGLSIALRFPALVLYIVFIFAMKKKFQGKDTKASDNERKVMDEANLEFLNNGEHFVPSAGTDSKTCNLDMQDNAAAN", "assay": "EβG uptake in HEK293 cells overexpressing hOATP1B3", "assay_type": "in vitro ADME"}, "[4]": {"biological_target": "T3, hOATP1B3", "assay": "Inhibition of EβG uptake in HEK293 cells overexpressing hOATP1B3"}, "[5]": {"test_system": "OATP1B2", "assay": "Plasma level and DRG/plasma ratio of α-tocopherol in mice (biomarker of OATP1B2 function)", "assay_type": "in vivo, mouse"}, "[6]": {"biological_target": "T2, hOATP1B1", "assay": "α-tocopherol uptake in HEK293 cells overexpressing hOATP1B1", "assay_type": "in vitro ADME"}, "[7]": {"biological_target": "T3, hOATP1B3", "assay": "α-tocopherol uptake in HEK293 cells overexpressing hOATP1B3", "assay_type": "in vitro ADME"}, "[8]": {"test_system": "OATP1B2", "assay": "Untargeted metabolomics of plasma and DRG, WT vs OATP1B2-deficient mice", "assay_type": "in vivo, mouse", "from_the_text": "(A) Schematic overview of the untargeted metabolomics screen to discover an endogenous biomarker of OATP1B2. […] Positive fold change indicates higher plasma concentration in OATP1B2^–/– mice (n = 6 per group). […] (C) Volcano plot of differentially endogenous metabolites in untreated whole DRG samples of WT mice or OATP1B2^–/– mice. Negative fold change indicates lower DRG levels in OATP1B2^–/– mice (n = 6 per group). (D) Plasma levels and DRG/plasma ratios of α-tocopherol in WT mice or OATP1B2^–/– mice in secondary validation studies. […] Data are normalized to baseline levels observed in WT mice (n = 3 per group)."}, "[9]": {"conditions": "cited from earlier work"}},
  "note": "Where “and” joins values, the source holds several entries; their conditions need not be identical. Equal values may be shown once.",
  "data": [
    {"smiles": "C[C@]12CC[C@@H]3c4ccc(O)cc4CC[C@H]3[C@@H]1CC[C@@H]2O[C@@H]1O[C@H](C(=O)O)[C@@H](O)[C@H](O)[C@H]1O", "note": "[EβG, estradiol-17β-ᴅ-glucuronide]", "values": [
      {"measurement": "EβG uptake (% of vector)", "setting": "[1]", "result": "2727.12 % of vector and 2435.39 % of vector and 2079.28 % of vector"},
      {"measurement": "EβG uptake (% of vector)", "setting": "[2]", "result": "1260.82 % of vector and 1125.55 % of vector and 1194.22 % of vector"},
      {"measurement": "EβG uptake (% of vector)", "setting": "[3]", "result": "5469.07 % of vector and 5408.81 % of vector and 5929.51 % of vector"}
    ]},
    {"smiles": "Cc1c(C)c2c(c(C)c1O)CC[C@@](C)(CCC[C@H](C)CCC[C@H](C)CCCC(C)C)O2", "note": "[α-tocopherol]", "values": [
      {"measurement": "Inhibition of transporter-mediated uptake of EβG", "setting": "[4]", "result": "can mediate inhibition of transporter-mediated uptake"},
      {"measurement": "Level of α-tocopherol (% of wild-type)", "setting": "[5]; DRG, OATP1B2(-/-) mice", "result": "28.1345 % of wild-type and 39.8965 % of wild-type and 39.7351 % of wild-type and 42.7289 % of wild-type and 36.0477 % of wild-type and 32.6784 % of wild-type"},
      {"measurement": "Level of α-tocopherol (% of wild-type)", "setting": "[5]; DRG, Wild-type mice", "result": "86.7441 % of wild-type and 109.645 % of wild-type and 120.39 % of wild-type and 114.671 % of wild-type and 77.0519 % of wild-type and 91.498 % of wild-type"},
      {"measurement": "Level of α-tocopherol (% of wild-type baseline), relative DRG/plasma ratio", "setting": "[5]; KO (OATP1B2-/-) mice", "result": "39.9993 % of wild-type baseline and 37.2252 % of wild-type baseline and 46.6384 % of wild-type baseline"},
      {"measurement": "Level of α-tocopherol (% of wild-type baseline), DRG/Plasma Ratio", "setting": "[5]; KO mice", "result": "39.9993% and 37.2252% and 46.6384%"},
      {"measurement": "Level of α-tocopherol (% of wild-type baseline), Plasma", "setting": "[5]; KO mice", "result": "178.006% and 210.63% and 138.224%"},
      {"measurement": "Level of α-tocopherol (% of wild-type)", "setting": "[5]; Plasma, OATP1B2(-/-) mice", "result": "240.656 % of wild-type and 154.285 % of wild-type and 188.158 % of wild-type and 206.445 % of wild-type and 170.946 % of wild-type and 257.161 % of wild-type"},
      {"measurement": "Level of α-tocopherol (% of wild-type)", "setting": "[5]; Plasma, Wild-type mice", "result": "128.573 % of wild-type and 75.6647 % of wild-type and 109.778 % of wild-type and 78.7903 % of wild-type and 110.315 % of wild-type and 96.8791 % of wild-type"},
      {"measurement": "Level of α-tocopherol (% of wild-type baseline), relative DRG/plasma ratio", "setting": "[5]; WT mice, baseline", "result": "92.6568 % of wild-type baseline and 110.888 % of wild-type baseline and 96.4551 % of wild-type baseline"},
      {"measurement": "Level of α-tocopherol (% of wild-type baseline), DRG/Plasma Ratio", "setting": "[5]; WT mice", "result": "92.6568% and 110.888% and 96.4551%"},
      {"measurement": "Level of α-tocopherol (% of wild-type baseline), Plasma", "setting": "[5]; WT mice", "result": "108.759% and 91.8035% and 99.4376%"},
      {"measurement": "α-tocopherol uptake (% of vehicle)", "setting": "[6]; VC cells, control for hOATP1B1", "result": "88.8965% and 111.905% and 99.1984%"},
      {"measurement": "α-tocopherol uptake (% of vehicle)", "setting": "[6]; cells overexpressing hOATP1B1", "result": "109.574% and 76.2241% and 88.2425%"},
      {"measurement": "Substrate status", "setting": "[7]; OATP1B3", "result": "transported substrate of OATP1B3"},
      {"measurement": "α-tocopherol uptake (% of vehicle)", "setting": "[7]; VC cells, control for hOATP1B3", "result": "86.9835% and 91.7117% and 121.305% and 85.9356% and 106.189% and 107.875%"},
      {"measurement": "α-tocopherol uptake (% of vehicle)", "setting": "[7]; cells overexpressing hOATP1B3", "result": "213.78% and 147.762% and 148.702% and 127.524% and 133.603% and 184.662%"},
      {"measurement": "Fold of Change KO/WT", "setting": "[8]; DRG samples, untreated OATP1B2-deficient (KO) vs wild-type mice", "result": 0.730},
      {"measurement": "Fold of Change KO/WT", "setting": "[8]; untreated plasma, OATP1B2-deficient (KO) vs wild-type mice", "result": 2.03},
      {"measurement": "Share recovered in the liver", "setting": "[9]", "result": "up to 90%"}
    ]}
  ]
}
